The test system of assay [1] is HeLa (cervical cancer cells). Put plainly: MTT assay for anticancer activity (in vitro cytotoxicity), HeLa. To be noted: for IC50: MTT, incubated 24 h with compound, read-out: IC50 ± SEM, HeLa (concentration causing 50% reduction in cell viability). The format is cell-based, human. The procedure:
(§1) Cell Cultures: Human Cervical cancer HeLa and Brest cancer cell lines MCF-7 were grown in Dulbecco's modified Eagle's medium (DMEM) supplemented with 10% Fetal Bovine Serum (FBS), and 1% penicillin (10,000 units), streptomycin (10 mg), in 74 cm2 flask and incubated until 80% confluences obtained in humidified environment of, 5% CO2, 95% air, 37° C.
(§2) Complexes 1-7 and cisplatin (positive control) at 0.195 μM, 0.39 μM, 0.781 μM, 1.56 μM, 3.125 μM, 6.25 μM, 12.5 μM, 25 μM, and 50 μM concentrations were prepared in DMEM. Cancer cells were seeded and maintained in quadruplicate in a 96-well tissue culture plate at 5×10^4 cells per well in 200 μl of same medium. The cancer cells were incubated 24 hours before the treatment. All compounds were dissolved in 50% DMSO. Therefore, DMSO was used as a negative control. The final DMSO concentration, in each well, was less than 0.1%. The cancer cells were treated with the synthesized compounds 1-8 along with the cisplatin and the resultant cultures were incubated for 24 h. The medium of wells was discarded and 100 μL DMEM containing MTT (3-(4,5-dimethylthiazol-2-yl)-2,5-diphenyltetrazolium bromide) (5 mg/mL) was added to the wells and incubated in a CO2 incubator at 37° C. in the dark for 4 hrs. After incubation, a purple colored formazan (artificial chromogenic dye, a product of the reduction of water insoluble tetrazolium salts e.g., MTT by dehydrogenases and reductases) in the cells is produced and appeared as dark crystals in the bottom of the wells. The medium of culture was discarded from each well carefully to avoid disruption of the monolayer. 100 μL of isopropanol was added in each well. The solution was thoroughly mixed in the wells to dissolve the formazan crystals which ultimately results into a purple solution. The absorbance of the 96-well plate was measured at 570 nm with Mithras2LB943 against reagent blank. All data presented are mean±standard deviation.
(§3) To examine the possible anticancer effect of cisplatin and the prepared complexes, two human tumor cell lines, HeLa (cervical cancer cells) and MCF7 (breast cancer cells) were used. The results of in vitro cytotoxic activity are expressed as IC50 (concentration causing 50% reduction in cell viability) and are presented in Table 5.

Assay [2] deals with MCF7 (breast cancer cells). Nature of the assay: MTT assay for anticancer activity (in vitro cytotoxicity), MCF7. The class given is cell-based, human. To be noted: for IC50: MTT, incubated 24 h with compound, read-out: IC50 ± SEM, MCF7 (concentration causing 50% reduction in cell viability). The procedure:
as §1, §2, §3

For the compound `[Cl][Pt]([Cl])([Se]=C1NCCCN1)[Se]=C1NCCCN1` [(6), Pt(DiazSe)2Cl2], the IC50 worked out at 11.3 ± 0.2 µM in assay [1] and 12.27 ± 0.01 µM in assay [2]. Moreover, in assay [1] (in words), the “antiproliferative potency in HeLa cells, compared among the complexes and with cisplatin” value is “strongest antiproliferative potency”.
Consider `CCCN1CCNC1=[Se][Pt]([Cl])([Cl])[Se]=C1NCCN1CCC` [(4), Pt(PrImSe)2Cl2], for which the IC50 is 12.9 ± 0.16 µM in assay [1] and 18.64 ± 0.03 µM in assay [2].
Take `N.N.[Cl][Pt][Cl]` [Cisplatin, cisplatin, reference compound]: the IC50 in assay [1] amounted to 21.4 ± 0.73 µM; in assay [2] it was 8.98 ± 0.07 µM.
Regarding `[Cl][Pt]([Cl])(=[Se]=C1NCCN1)=[Se]=C1NCCN1` [(2), Pt(ImSe)2Cl2], in assay [2] (in words), the “activity against MCF7 cells, compared among the complexes and with cisplatin” value is “most active”.
In the case of `NC(N)=[Se][Pt]([Cl])([Cl])[Se]=C(N)N` [(1), Pt(SeU)2Cl2], the IC50 was determined as 19.78 ± 0.13 µM in assay [1] and 11.11 ± 0.05 µM in assay [2].
For `CC(C)N1CCNC1=[Se][Pt]([Cl])([Cl])[Se]=C1NCCN1C(C)C` [(5), Pt(i-PrImSe)2Cl2], the values for the IC50 in assay [1] and in assay [2] were 14 ± 0.16 µM and 8.3 ± 0.06 µM, respectively.
For `CCN1CCNC1=[Se][Pt]([Cl])([Cl])[Se]=C1NCCN1CC` [(3), Pt(EtImSe)2Cl2], in that order: 17.73 ± 0.14 µM and 8.59 ± 0.07 µM.
`[Cl][Pt]([Cl])([Se]=C1NCCCCN1)[Se]=C1NCCCCN1` [(7), Pt(DiapSe)2Cl2]: the IC50 in assay [1] is 11.5 ± 0.22 µM; in assay [2] it was 16.68 ± 0.02 µM.

The values above are taken from patent US10358456B2, “Platinum(II) complexes with selone ligands and method of use” (KING FAHD UNIVERSITY OF PETROLEUM AND MINERALS, priority 2017, dated 2019).
